{
  "source": "patent US20080051457A1",
  "about": "“Optically Active Phthalamide Derivative, Agricultural or Horticultural Insecticide, and Method of Using the Same” (priority 2004, published 2008)",
  "data": [
    {"assay": "logP (pH2.3), physical properties of Tables 1 to 3", "assay_type": "physicochemical", "conditions": "not given", "from_the_text": "(§1) However, the present invention is not limited to these compounds. In the tables, the term “physical properties” means a melting point or logp. The symbol “Me” represents a methyl group, “Et” represents an ethyl group, “Pr” represents a propyl group, “-n” represents normal, and “-i” represents iso.", "values": [
      {"smiles": "CCC(C[S+](C)[O-])NC(=O)c1c(Cl)cccc1C(=O)Nc1ccc(C(F)(C(F)(F)F)C(F)(F)F)cc1C", "note": "(mixture of isomers) [Compound 1-340]", "Physical properties logP(pH2.3)": 2.78}
    ]},
    {"assay": "logP (pH2.3), physical properties of Tables 1 to 3", "assay_type": "physicochemical", "conditions": "Table 1", "from_the_text": "as §1", "values": [
      {"smiles": "CCSC[C@H](C)NC(=O)c1c(I)cccc1C(=O)Nc1ccc(C(F)(C(F)(F)F)C(F)(F)F)c(F)c1C", "note": "[Compound 1-105]", "Physical properties: logP": 4.71},
      {"smiles": "CC[S+]([O-])C[C@H](C)NC(=O)c1c(I)cccc1C(=O)Nc1ccc(C(F)(C(F)(F)F)C(F)(F)F)c(F)c1C", "note": "(stereo partly shown) [Compound 1-106]", "Physical properties: logP": 2.97},
      {"smiles": "CCS(=O)(=O)C[C@H](C)NC(=O)c1c(I)cccc1C(=O)Nc1ccc(C(F)(C(F)(F)F)C(F)(F)F)c(F)c1C", "note": "[Compound 1-107]", "Physical properties: logP": 3.47},
      {"smiles": "CCSC[C@H](C)NC(=O)c1c(I)cccc1C(=O)Nc1ccc(C(F)(F)C(F)(F)F)c(F)c1C", "note": "[Compound 1-108]", "Physical properties: logP": 4.36},
      {"smiles": "CCS(=O)(=O)C[C@H](C)NC(=O)c1c(I)cccc1C(=O)Nc1ccc(C(F)(F)C(F)(F)F)c(F)c1C", "note": "[Compound 1-110]", "Physical properties: logP": 3.15},
      {"smiles": "CCSC[C@H](C)NC(=O)c1c(I)cccc1C(=O)Nc1ccc(C(F)(F)C(F)(F)F)c(Cl)c1C", "note": "[Compound 1-111]", "Physical properties: logP": 4.53},
      {"smiles": "CCSC[C@H](C)NC(=O)c1c(I)cccc1C(=O)Nc1cc(F)c(OC(F)(F)F)cc1Br", "note": "[Compound 1-114]", "Physical properties: logP": 4.28},
      {"smiles": "CCS(=O)(=O)C[C@H](C)NC(=O)c1c(I)cccc1C(=O)Nc1cc(F)c(OC(F)(F)F)cc1Br", "note": "[Compound 1-116]", "Physical properties: logP": 3.09},
      {"smiles": "CCSC[C@H](C)NC(=O)c1c(I)cccc1C(=O)Nc1cc(F)c(OC(F)(F)F)cc1Cl", "note": "[Compound 1-117]", "Physical properties: logP": 4.26},
      {"smiles": "CCS(=O)(=O)C[C@H](C)NC(=O)c1c(I)cccc1C(=O)Nc1cc(F)c(OC(F)(F)F)cc1Cl", "note": "[Compound 1-119]", "Physical properties: logP": 3.07},
      {"smiles": "CCSC[C@H](C)NC(=O)c1c(I)cccc1C(=O)Nc1ccc(Br)c(F)c1C", "note": "[Compound 1-120]", "Physical properties: logP": 3.65},
      {"smiles": "CCS(=O)(=O)C[C@H](C)NC(=O)c1c(I)cccc1C(=O)Nc1ccc(Br)c(F)c1C", "note": "[Compound 1-122]", "Physical properties: logP": 2.49},
      {"smiles": "CCSC[C@H](C)NC(=O)c1c(I)cccc1C(=O)Nc1ccc(OC(F)(F)F)c(F)c1C", "note": "[Compound 1-123]", "Physical properties: logP": 3.90},
      {"smiles": "CCS(=O)(=O)C[C@H](C)NC(=O)c1c(I)cccc1C(=O)Nc1ccc(OC(F)(F)F)c(F)c1C", "note": "[Compound 1-125]", "Physical properties: logP": 2.77},
      {"smiles": "CCSC[C@H](C)NC(=O)c1c(I)cccc1C(=O)Nc1ccc(C(F)(F)F)c(F)c1C", "note": "[Compound 1-126]", "Physical properties: logP": 3.90},
      {"smiles": "CCS(=O)(=O)C[C@H](C)NC(=O)c1c(I)cccc1C(=O)Nc1ccc(C(F)(F)F)c(F)c1C", "note": "[Compound 1-128]", "Physical properties: logP": 2.74},
      {"smiles": "CCSC[C@H](C)NC(=O)c1c(I)cccc1C(=O)Nc1ccc(Br)c(Br)c1C", "note": "[Compound 1-129]", "Physical properties: logP": 3.89},
      {"smiles": "CCS(=O)(=O)C[C@H](C)NC(=O)c1c(I)cccc1C(=O)Nc1ccc(Br)c(Br)c1C", "note": "[Compound 1-131]", "Physical properties: logP": 2.67},
      {"smiles": "CCSC[C@H](C)NC(=O)c1c(I)cccc1C(=O)Nc1ccc(I)c(F)c1C", "note": "[Compound 1-132]", "Physical properties: logP": 3.77},
      {"smiles": "CCS(=O)(=O)C[C@H](C)NC(=O)c1c(I)cccc1C(=O)Nc1ccc(I)c(F)c1C", "note": "[Compound 1-134]", "Physical properties: logP": 2.59},
      {"smiles": "CSC[C@H](C)NC(=O)c1c(I)cccc1C(=O)Nc1ccc(C(F)(F)C(F)(F)F)c(F)c1C", "note": "[Compound 1-135]", "Physical properties: logP": 4.03},
      {"smiles": "Cc1c(NC(=O)c2cccc(I)c2C(=O)N[C@@H](C)C[S+](C)[O-])ccc(C(F)(F)C(F)(F)F)c1F", "note": "(stereo partly shown) [Compound 1-136]", "Physical properties: logP": 2.50},
      {"smiles": "Cc1c(NC(=O)c2cccc(I)c2C(=O)N[C@@H](C)CS(C)(=O)=O)ccc(C(F)(F)C(F)(F)F)c1F", "note": "[Compound 1-137]", "Physical properties: logP": 2.97},
      {"smiles": "CSC[C@H](C)NC(=O)c1c(I)cccc1C(=O)Nc1ccc(OC(F)(F)F)c(F)c1C", "note": "[Compound 1-138]", "Physical properties: logP": 3.59},
      {"smiles": "Cc1c(NC(=O)c2cccc(I)c2C(=O)N[C@@H](C)CS(C)(=O)=O)ccc(OC(F)(F)F)c1F", "note": "[Compound 1-140]", "Physical properties: logP": 2.60},
      {"smiles": "CSC[C@H](C)NC(=O)c1c(I)cccc1C(=O)Nc1ccc(C(F)(C(F)(F)F)C(F)(F)F)c(F)c1C", "note": "[Compound 1-141]", "Physical properties: logP": 4.41},
      {"smiles": "Cc1c(NC(=O)c2cccc(I)c2C(=O)N[C@@H](C)C[S+](C)[O-])ccc(C(F)(C(F)(F)F)C(F)(F)F)c1F", "note": "(stereo partly shown) [Compound 1-142]", "Physical properties: logP": 2.78},
      {"smiles": "Cc1c(NC(=O)c2cccc(I)c2C(=O)N[C@@H](C)CS(C)(=O)=O)ccc(C(F)(C(F)(F)F)C(F)(F)F)c1F", "note": "[Compound 1-143]", "Physical properties: logP": 3.27},
      {"smiles": "CSC[C@H](C)NC(=O)c1c(I)cccc1C(=O)Nc1ccc(C(F)(F)C(F)(F)F)c(Cl)c1C", "note": "[Compound 1-144]", "Physical properties: logP": 4.20},
      {"smiles": "CSC[C@H](C)NC(=O)c1c(I)cccc1C(=O)Nc1ccc(Br)c(F)c1C", "note": "[Compound 1-147]", "Physical properties: logP": 3.30},
      {"smiles": "Cc1c(NC(=O)c2cccc(I)c2C(=O)N[C@@H](C)CS(C)(=O)=O)ccc(Br)c1F", "note": "[Compound 1-149]", "Physical properties: logP": 2.29},
      {"smiles": "CSC[C@H](C)NC(=O)c1c(I)cccc1C(=O)Nc1ccc(I)c(F)c1C", "note": "[Compound 1-150]", "Physical properties: logP": 3.42},
      {"smiles": "Cc1c(NC(=O)c2cccc(I)c2C(=O)N[C@@H](C)CS(C)(=O)=O)ccc(I)c1F", "note": "[Compound 1-152]", "Physical properties: logP": 2.40},
      {"smiles": "CSC[C@H](C)NC(=O)c1c(I)cccc1C(=O)Nc1ccc(Br)c(Br)c1C", "note": "[Compound 1-153]", "Physical properties: logP": 3.55},
      {"smiles": "Cc1c(NC(=O)c2cccc(I)c2C(=O)N[C@@H](C)CS(C)(=O)=O)ccc(Br)c1Br", "note": "[Compound 1-155]", "Physical properties: logP": 2.49},
      {"smiles": "CSC[C@H](C)NC(=O)c1c(I)cccc1C(=O)Nc1ccc(C(F)(F)F)c(F)c1C", "note": "[Compound 1-156]", "Physical properties: logP": 3.58},
      {"smiles": "CCSC[C@H](C)NC(=O)c1c(I)cccc1C(=O)Nc1ccc(OC(F)(F)F)c(Cl)c1Cl", "note": "[Compound 1-159]", "Physical properties: logP": 4.41},
      {"smiles": "CCS(=O)(=O)C[C@H](C)NC(=O)c1c(I)cccc1C(=O)Nc1ccc(OC(F)(F)F)c(Cl)c1Cl", "note": "[Compound 1-161]", "Physical properties: logP": 3.18},
      {"smiles": "CCSC[C@H](C)NC(=O)c1c(I)cccc1C(=O)Nc1ccc(OC(F)(F)F)c(Br)c1Cl", "note": "[Compound 1-162]", "Physical properties: logP": 4.42},
      {"smiles": "CCS(=O)(=O)C[C@H](C)NC(=O)c1c(I)cccc1C(=O)Nc1ccc(OC(F)(F)F)c(Br)c1Cl", "note": "[Compound 1-164]", "Physical properties: logP": 3.19},
      {"smiles": "CSC[C@H](C)NC(=O)c1c(Br)cccc1C(=O)Nc1ccc(C(F)(F)C(F)(F)F)c(F)c1C", "note": "[Compound 1-165]", "Physical properties: logP": 3.93},
      {"smiles": "Cc1c(NC(=O)c2cccc(Br)c2C(=O)N[C@@H](C)C[S+](C)[O-])ccc(C(F)(F)C(F)(F)F)c1F", "note": "(stereo partly shown) [Compound 1-166]", "Physical properties: logP": 2.42},
      {"smiles": "Cc1c(NC(=O)c2cccc(Br)c2C(=O)N[C@@H](C)CS(C)(=O)=O)ccc(C(F)(F)C(F)(F)F)c1F", "note": "[Compound 1-167]", "Physical properties: logP": 2.86},
      {"smiles": "CSC[C@H](C)NC(=O)c1c(Br)cccc1C(=O)Nc1ccc(C(F)(C(F)(F)F)C(F)(F)F)c(F)c1C", "note": "[Compound 1-168]", "Physical properties: logP": 4.31},
      {"smiles": "Cc1c(NC(=O)c2cccc(Br)c2C(=O)N[C@@H](C)C[S+](C)[O-])ccc(C(F)(C(F)(F)F)C(F)(F)F)c1F", "note": "(stereo partly shown) [Compound 1-169]", "Physical properties: logP": 2.72}
    ]}
  ]
}
